Assay results taken from ChEMBL document CHEMBL3813616, “Discovery of novel 7-azaindoles as PDK1 inhibitors” (Bioorg Med Chem Lett, 2016).
Values after ≈ are worked out from the molar mass of the structure shown.

Assays:
[1] = molecular target: T1, 3-phosphoinositide-dependent protein kinase 1 (Homo sapiens, UniProt O15530); experiment: Inhibition of human His6-tagged PDK1 using biotinylated PDKtide as substrate after 60 mins by topcount method
T1 sequence (O15530 whole entry): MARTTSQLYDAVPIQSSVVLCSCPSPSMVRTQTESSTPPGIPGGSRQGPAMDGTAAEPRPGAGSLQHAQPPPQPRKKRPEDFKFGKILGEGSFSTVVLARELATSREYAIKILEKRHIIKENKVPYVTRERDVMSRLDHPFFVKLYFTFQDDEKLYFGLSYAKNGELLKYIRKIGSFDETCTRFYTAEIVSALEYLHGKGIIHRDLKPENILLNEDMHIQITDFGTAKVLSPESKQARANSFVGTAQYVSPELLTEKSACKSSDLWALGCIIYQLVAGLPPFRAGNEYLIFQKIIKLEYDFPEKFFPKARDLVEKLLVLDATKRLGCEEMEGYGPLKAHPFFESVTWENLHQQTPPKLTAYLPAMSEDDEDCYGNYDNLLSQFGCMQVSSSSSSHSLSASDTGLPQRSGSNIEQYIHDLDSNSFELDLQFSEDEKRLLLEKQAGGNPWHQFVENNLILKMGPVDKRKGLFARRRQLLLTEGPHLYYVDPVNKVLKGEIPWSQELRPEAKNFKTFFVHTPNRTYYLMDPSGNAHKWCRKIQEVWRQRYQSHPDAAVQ

[2] = molecular target: T1, 3-phosphoinositide-dependent protein kinase 1; experiment: Inhibition of PDK1 in human PC3 cells assessed as reduction in AKT Thr308 phosphorylation after 45 mins; type: cell-based, PC-3
[3] = molecular target: T2, Phosphatidylinositol 4,5-bisphosphate 3-kinase catalytic subunit delta isoform (Homo sapiens, UniProt O00329); experiment: Inhibition of PI3K delta (unknown origin)
T2 sequence (O00329 whole entry): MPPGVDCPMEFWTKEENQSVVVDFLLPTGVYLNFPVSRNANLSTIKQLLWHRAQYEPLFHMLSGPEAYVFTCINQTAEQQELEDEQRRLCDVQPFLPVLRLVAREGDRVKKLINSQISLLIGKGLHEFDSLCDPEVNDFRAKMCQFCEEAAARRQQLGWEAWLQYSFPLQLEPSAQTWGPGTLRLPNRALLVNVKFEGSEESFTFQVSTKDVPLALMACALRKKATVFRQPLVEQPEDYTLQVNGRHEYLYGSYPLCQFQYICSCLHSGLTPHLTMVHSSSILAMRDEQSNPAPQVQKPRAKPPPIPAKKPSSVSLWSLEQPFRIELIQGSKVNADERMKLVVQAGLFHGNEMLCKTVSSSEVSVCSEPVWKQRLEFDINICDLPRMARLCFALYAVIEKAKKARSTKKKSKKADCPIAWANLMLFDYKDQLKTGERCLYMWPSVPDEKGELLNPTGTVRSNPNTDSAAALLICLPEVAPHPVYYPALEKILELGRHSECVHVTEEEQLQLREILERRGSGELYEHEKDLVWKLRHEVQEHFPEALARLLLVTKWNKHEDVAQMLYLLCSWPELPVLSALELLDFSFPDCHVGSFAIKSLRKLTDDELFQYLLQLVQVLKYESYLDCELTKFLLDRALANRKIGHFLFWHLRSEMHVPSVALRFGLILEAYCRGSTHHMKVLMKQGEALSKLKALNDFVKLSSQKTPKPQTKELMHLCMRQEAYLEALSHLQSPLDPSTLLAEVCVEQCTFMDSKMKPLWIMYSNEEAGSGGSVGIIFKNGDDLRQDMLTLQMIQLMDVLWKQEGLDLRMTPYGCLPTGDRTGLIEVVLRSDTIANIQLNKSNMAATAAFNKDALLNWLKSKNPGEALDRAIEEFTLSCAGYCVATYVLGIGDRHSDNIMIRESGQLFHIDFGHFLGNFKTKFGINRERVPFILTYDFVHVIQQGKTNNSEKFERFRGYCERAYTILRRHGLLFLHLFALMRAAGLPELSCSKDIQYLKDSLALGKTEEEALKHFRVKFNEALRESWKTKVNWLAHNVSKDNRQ

[4] = Permeability across apical to basolateral side in human Caco2 cells; type: ADME, cell-based; conditions: Caco-2
[5] = molecular target: Phosphatidylinositol 4,5-bisphosphate 3-kinase catalytic subunit gamma isoform (Homo sapiens, UniProt P48736); experiment: Inhibition of PI3K gamma (unknown origin)
[6] = molecular target: T3, Phosphatidylinositol 4,5-bisphosphate 3-kinase catalytic subunit alpha isoform (Homo sapiens, UniProt P42336); experiment: Inhibition of PI3K alpha (unknown origin) at 10 uM
[7] = Efflux ratio of permeability from basolateral to apical over apical to basolateral side in human Caco2 cells; type: ADME, cell-based; conditions: Caco-2
[8] = Intrinsic clearance in mouse liver microsomes; type: ADME; conditions: read-out: CLH
[9] = Intrinsic clearance in human liver microsomes; type: ADME; conditions: read-out: CLH
[10] = molecular target: Phosphatidylinositol 4,5-bisphosphate 3-kinase catalytic subunit beta isoform (Homo sapiens, UniProt P42338); experiment: Inhibition of PI3K beta (unknown origin)
Homo sapiens = organism: Homo sapiens; experiment: Selectivity ratio of IC50 for PI3K alpha (unknown origin) to IC50 for human His6-tagged PDK1
[11] = molecular target: T3, Phosphatidylinositol 4,5-bisphosphate 3-kinase catalytic subunit alpha isoform; experiment: Inhibition of PI3K alpha (unknown origin)
[12] = Solubility of the compound; type: physicochemical
[13] = molecular target: T1, 3-phosphoinositide-dependent protein kinase 1; experiment: Inhibition of human PDK1

Sequence of Phosphatidylinositol 4,5-bisphosphate 3-kinase catalytic subunit beta isoform (P42338 whole entry, canonical isoform): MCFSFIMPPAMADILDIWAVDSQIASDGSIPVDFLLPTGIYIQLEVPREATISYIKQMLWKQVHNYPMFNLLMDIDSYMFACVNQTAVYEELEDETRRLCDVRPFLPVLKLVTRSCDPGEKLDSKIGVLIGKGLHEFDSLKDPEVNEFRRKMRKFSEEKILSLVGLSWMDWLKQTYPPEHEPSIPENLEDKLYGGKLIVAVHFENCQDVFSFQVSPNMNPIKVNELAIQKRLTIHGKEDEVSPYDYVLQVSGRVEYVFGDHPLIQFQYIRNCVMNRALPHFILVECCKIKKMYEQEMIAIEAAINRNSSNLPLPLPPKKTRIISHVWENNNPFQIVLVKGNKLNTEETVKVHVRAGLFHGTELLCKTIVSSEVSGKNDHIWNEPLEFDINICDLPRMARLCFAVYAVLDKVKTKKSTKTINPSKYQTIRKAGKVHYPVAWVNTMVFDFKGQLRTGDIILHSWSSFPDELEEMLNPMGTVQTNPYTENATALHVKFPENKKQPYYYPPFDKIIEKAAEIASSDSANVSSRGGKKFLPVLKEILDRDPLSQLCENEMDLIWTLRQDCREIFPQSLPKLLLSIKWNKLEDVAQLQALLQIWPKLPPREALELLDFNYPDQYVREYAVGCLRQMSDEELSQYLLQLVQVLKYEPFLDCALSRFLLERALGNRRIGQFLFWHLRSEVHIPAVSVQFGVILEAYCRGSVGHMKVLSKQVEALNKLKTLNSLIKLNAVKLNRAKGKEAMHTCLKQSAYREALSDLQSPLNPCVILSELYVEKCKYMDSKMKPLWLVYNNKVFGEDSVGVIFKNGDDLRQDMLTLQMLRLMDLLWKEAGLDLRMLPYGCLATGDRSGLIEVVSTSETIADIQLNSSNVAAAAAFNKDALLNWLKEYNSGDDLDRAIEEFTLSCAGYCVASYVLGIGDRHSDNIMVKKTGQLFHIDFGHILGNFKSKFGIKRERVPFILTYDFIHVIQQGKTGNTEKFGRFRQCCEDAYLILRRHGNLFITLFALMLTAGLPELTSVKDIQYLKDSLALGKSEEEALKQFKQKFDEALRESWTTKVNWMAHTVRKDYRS
T3 sequence (P42336 whole entry, canonical isoform): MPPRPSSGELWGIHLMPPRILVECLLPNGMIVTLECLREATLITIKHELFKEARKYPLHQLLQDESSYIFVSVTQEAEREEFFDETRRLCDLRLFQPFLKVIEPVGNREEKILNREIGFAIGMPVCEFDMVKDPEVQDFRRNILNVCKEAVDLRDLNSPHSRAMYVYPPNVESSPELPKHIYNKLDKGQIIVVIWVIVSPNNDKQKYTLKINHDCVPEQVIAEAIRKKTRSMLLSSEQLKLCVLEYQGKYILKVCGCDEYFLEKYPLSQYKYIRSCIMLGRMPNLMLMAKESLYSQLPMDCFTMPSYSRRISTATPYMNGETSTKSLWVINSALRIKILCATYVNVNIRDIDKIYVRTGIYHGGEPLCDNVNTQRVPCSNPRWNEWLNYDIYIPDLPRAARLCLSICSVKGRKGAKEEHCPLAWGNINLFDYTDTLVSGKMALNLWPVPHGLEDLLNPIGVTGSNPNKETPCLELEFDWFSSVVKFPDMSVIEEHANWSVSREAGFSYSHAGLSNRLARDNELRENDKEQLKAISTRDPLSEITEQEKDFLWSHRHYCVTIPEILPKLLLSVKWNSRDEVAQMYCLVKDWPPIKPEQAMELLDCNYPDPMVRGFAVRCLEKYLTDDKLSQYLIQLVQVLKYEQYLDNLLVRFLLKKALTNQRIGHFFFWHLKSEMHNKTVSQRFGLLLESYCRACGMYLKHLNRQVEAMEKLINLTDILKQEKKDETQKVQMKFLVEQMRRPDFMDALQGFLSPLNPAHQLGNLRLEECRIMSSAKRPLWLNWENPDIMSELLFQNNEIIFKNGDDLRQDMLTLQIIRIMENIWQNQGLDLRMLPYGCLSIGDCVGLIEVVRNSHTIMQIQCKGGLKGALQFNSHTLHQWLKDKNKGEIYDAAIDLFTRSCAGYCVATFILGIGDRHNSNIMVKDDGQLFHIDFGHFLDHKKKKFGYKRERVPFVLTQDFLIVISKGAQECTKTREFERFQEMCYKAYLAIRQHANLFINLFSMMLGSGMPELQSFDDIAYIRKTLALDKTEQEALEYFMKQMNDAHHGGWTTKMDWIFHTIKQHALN
Sequence of Phosphatidylinositol 4,5-bisphosphate 3-kinase catalytic subunit gamma isoform (P48736 whole entry, canonical isoform): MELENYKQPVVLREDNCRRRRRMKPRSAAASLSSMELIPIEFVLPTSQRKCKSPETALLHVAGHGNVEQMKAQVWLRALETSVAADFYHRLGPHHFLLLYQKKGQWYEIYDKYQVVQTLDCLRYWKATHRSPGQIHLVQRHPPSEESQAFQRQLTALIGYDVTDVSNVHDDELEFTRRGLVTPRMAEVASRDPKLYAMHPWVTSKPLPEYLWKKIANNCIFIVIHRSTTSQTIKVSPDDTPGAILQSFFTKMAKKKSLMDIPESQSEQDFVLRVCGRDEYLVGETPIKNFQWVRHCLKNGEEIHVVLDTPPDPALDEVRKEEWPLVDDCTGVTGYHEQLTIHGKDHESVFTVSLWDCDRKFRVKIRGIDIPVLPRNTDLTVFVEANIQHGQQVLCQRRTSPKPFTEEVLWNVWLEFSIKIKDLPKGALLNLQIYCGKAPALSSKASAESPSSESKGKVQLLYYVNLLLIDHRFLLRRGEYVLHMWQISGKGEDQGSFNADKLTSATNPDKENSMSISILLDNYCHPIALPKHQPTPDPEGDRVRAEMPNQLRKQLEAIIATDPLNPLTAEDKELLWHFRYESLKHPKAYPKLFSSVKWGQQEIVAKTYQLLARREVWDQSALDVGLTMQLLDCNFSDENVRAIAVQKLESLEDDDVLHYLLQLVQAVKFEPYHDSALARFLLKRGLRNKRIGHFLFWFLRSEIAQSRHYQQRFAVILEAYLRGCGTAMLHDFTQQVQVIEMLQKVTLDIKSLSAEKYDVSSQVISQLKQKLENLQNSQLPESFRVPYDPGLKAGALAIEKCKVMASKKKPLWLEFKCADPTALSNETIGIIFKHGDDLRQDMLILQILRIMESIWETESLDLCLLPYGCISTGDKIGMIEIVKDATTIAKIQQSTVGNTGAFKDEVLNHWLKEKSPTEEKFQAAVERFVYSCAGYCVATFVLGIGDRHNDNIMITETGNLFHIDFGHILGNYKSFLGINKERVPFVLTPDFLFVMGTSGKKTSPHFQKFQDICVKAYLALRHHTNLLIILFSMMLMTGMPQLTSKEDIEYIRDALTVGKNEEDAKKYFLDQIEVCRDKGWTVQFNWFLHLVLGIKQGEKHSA

| IC50 [1] | IC50 [2] | SMILES | other results |
| --- | --- | --- | --- |
| 60 µM |  | Nc1nc2c3ccccc3nc(-c3ccccc3)n2n1 |  |
| 93 µM |  | COc1ccc2[nH]c(-c3cc[nH]n3)nc2c1 |  |
| 6.7 µM |  | Oc1ccc(-c2n[nH]c3cc(O)ccc23)cc1 |  |
| 0.085 µM | 11 µM | CCc1cc(-c2c[nH]c3ncc(-c4cnn(C)c4)cc23)nc(N)n1 | IC50 [3]: > 10 µM; Papp A→B [4]: 5.4 ×10⁻⁶ cm/s; IC50 [5]: > 10 µM; inhibition [6]: 78%; Ratio [7]: 7.9; microsomal CLint [8]: 71 µL/min/mg; microsomal CLint [9]: > 55 µL/min/mg |
| > 10 µM |  | CCc1cc(-c2c(C)[nH]c3ncccc23)nc(N)n1 |  |
| 1.1 µM |  | Nc1ncc(-c2ccccc2)cc1-c1nc2ccccc2[nH]1 |  |
| 0.5 µM | > 30 µM | CCc1cc(-c2c[nH]c3ncc(-c4cccnc4)cc23)nc(N)n1 |  |
| 0.45 µM | > 30 µM | CCc1cc(-c2c[nH]c3ncc(-c4ccncc4)cc23)nc(N)n1 |  |
| > 10 µM | > 30 µM | CCc1cc(-c2c[nH]c3ncccc23)ncn1 |  |
| 0.013 µM | 5.4 µM | CCc1cc(-c2c[nH]c3ncc(-c4cn[nH]c4)cc23)nc(N)n1 | IC50 [10]: > 30 µM; IC50 [3]: > 30 µM; Papp A→B [4]: 0.89 ×10⁻⁶ cm/s; IC50 [5]: 7 µM; Ratio IC50 (Homo sapiens): 460; Ratio [7]: 54.8; IC50 [11]: 6 µM; microsomal CLint [8]: > 70 µL/min/mg; microsomal CLint [9]: 52 µL/min/mg |
| 0.39 µM | > 30 µM | NCCCc1cc(-c2c[nH]c3ncccc23)nc(N)n1 | solubility [12]: 12 µg/mL (≈ 44.7 µM) |
| 3.5 µM | > 30 µM | CCc1cc(-c2c[nH]c3ncc(-c4ccccc4)cc23)nc(N)n1 |  |
| 1.2 µM | > 30 µM | CCc1cc(-c2c[nH]c3ncccc23)nc(N)n1 |  |
| > 10 µM |  | CCc1cc(-c2c[nH]c3nccc(Cl)c23)nc(N)n1 |  |
| 0.082 µM | 14 µM | CCc1cc(-c2c[nH]c3ncc(-c4cnn(CCN(C)C)c4)cc23)nc(N)n1 | IC50 [10]: > 30 µM; IC50 [3]: > 10 µM; Papp A→B [4]: 7.3 ×10⁻⁶ cm/s; IC50 [5]: > 10 µM; Ratio IC50 (Homo sapiens): 48; Ratio [7]: 2.3; IC50 [11]: 3.9 µM; microsomal CLint [8]: 39 µL/min/mg; microsomal CLint [9]: < 10 µL/min/mg |
| 2.7 µM | > 30 µM | CCc1cc(-c2c[nH]c3ncc(-c4c(C)nn(C)c4C)cc23)nc(N)n1 |  |
| 1.8 µM | > 30 µM | CCCc1cc(-c2c[nH]c3ncccc23)nc(N)n1 |  |
| 1 µM | > 30 µM | NCCCCc1cc(-c2c[nH]c3ncccc23)nc(N)n1 |  |
| 0.12 µM | 28 µM | CCc1cc(-c2c[nH]c3ncc(-c4ccco4)cc23)nc(N)n1 | IC50 [3]: > 10 µM; IC50 [5]: > 10 µM; IC50 [11]: > 10 µM |
| > 10 µM |  | Nc1ncc(Br)c(-c2c[nH]c3ncccc23)n1 |  |
| 0.17 µM | 21 µM | CCc1cc(-c2c[nH]c3ncc(-c4ccc(N)nc4)cc23)nc(N)n1 | IC50 [10]: > 30 µM; IC50 [3]: > 10 µM; IC50 [5]: > 10 µM; IC50 [11]: > 10 µM |
| 2.2 µM | > 30 µM | CCCCCc1cc(-c2c[nH]c3ncccc23)nc(N)n1 |  |
| 0.26 µM | 26 µM | CCc1cc(-c2c[nH]c3ncc(-c4ccn[nH]4)cc23)nc(N)n1 | IC50 [10]: > 30 µM; IC50 [3]: > 10 µM; IC50 [5]: > 10 µM; IC50 [11]: > 10 µM |
| > 10 µM |  | CNc1nccc(-c2cn(CCOC)c3ncccc23)n1 |  |
| 0.11 µM | 9.6 µM | CCc1cc(-c2c[nH]c3ncc(-c4cnn(CC(C)C)c4)cc23)nc(N)n1 | IC50 [10]: > 30 µM; IC50 [3]: > 10 µM; Papp A→B [4]: 27 ×10⁻⁶ cm/s; IC50 [5]: > 10 µM; Ratio IC50 (Homo sapiens): 42; Ratio [7]: 0.6; IC50 [11]: 4.7 µM; microsomal CLint [8]: 67 µL/min/mg; microsomal CLint [9]: > 55 µL/min/mg |
|  |  | Nc1nccc(-c2c[nH]c3cccc(O)c23)n1 [MERIDIANIN A] | IC50 [13]: 5.4 µM |
| > 10 µM |  | Cc1nccc(-c2c[nH]c3ncccc23)n1 |  |
| 12 µM |  | Nc1nccc(-c2c[nH]c3ccc(Br)cc23)n1 [MERIDIANIN C] |  |
| 0.48 µM | > 30 µM | CCc1cc(-c2c[nH]c3ncc(Br)cc23)nc(N)n1 |  |
| 2.4 µM | > 30 µM | CCc1cc(-c2c[nH]c3ncc(-c4ccnn4C)cc23)nc(N)n1 |  |
